Where two headings read alike, the source gives them in different places.
What was measured:
human Kv4.3 = biological target: T1, human Kv4.3 (Homo sapiens, UniProt Q9UK17); test: C. elegans based high-throughput screen for Kv4.3 modulators (pharynx pumping, Calcein AM uptake), strain UG1755; assay type: in vivo; conditions: for Ratio N2/Kv4.3: EC50 on N2 divided by EC50 on the Kv4.3 expressing strain, cut-off 1.8; for EC50: transgenic strain expressing human Kv4.3, read-out: EC50 (μM) Kv4.3 worm
T1 construct: expressed in transfected cells; host or cells: transgenic C. elegans strain UG1755 (plasmid pGV8 integrated; expression in the pharynx)
T1 sequence (Q9UK17 1-655): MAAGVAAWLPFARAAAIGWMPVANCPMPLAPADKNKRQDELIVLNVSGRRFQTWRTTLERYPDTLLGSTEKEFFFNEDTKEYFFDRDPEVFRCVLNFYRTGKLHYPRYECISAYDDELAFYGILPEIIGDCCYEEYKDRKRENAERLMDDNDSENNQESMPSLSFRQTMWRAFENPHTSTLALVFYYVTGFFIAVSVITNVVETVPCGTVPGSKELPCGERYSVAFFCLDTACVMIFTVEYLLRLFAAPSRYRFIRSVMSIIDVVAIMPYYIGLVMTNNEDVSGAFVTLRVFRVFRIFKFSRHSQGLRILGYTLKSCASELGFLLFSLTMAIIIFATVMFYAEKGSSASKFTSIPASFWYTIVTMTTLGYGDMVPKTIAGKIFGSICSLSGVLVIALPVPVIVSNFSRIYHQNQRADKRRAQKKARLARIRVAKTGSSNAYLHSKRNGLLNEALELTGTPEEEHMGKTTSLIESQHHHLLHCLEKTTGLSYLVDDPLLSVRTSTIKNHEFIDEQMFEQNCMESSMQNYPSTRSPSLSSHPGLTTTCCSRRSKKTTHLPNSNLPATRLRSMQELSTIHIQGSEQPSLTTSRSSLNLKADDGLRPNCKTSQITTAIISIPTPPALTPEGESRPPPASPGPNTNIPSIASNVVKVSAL
From the text: A C. elegans based high-throughput screen for Kv4.3 modulators has been used to establish an in vivo SAR (structure-activity relationships: the effect of chemical structure on biological activity) on Kv4.3 for the compounds according to the present invention.
This assay has employed a stable transgenic C. elegans strain that functionally expressed human Kv4.3 in the pharynx and a visible selection GFP maker in body-wall muscle.
The method to describe the construction of a transgenic C. elegans strain expressing human Kv4.3 has been described in WO 03/097682. Briefly, the actual used strain UG1755 has been generated by microinjection into the gonad of a wild-type strain N2 with a mix of 5 ng/μl plasmid pGV8 (human Kv4.3), 20 ng/μl pDW2821 (GFP-marker) and 40 ng/μl genomic C. elegans DNA. Transgenic animals have been isolated and submitted to integration of the extra-chromosomal array into the genome of C. elegans. A line with 50% transmission of the functional expressed human Kv4.3 has been mutagenized with gamma irradiation using a Cobalt source. About 12000 F2 animals have been singled out and their progeny has been screened for the 100% transmission of the GFP marker. Lines with 100% transmission of GFP have been considered as potentially integrated. These lines have been further tested and out-crossed with N2 strain two-times. All lines obtained have been tested for viability, GFP and human Kv4.3 expression. At the end of a selection process, UG1755 was identified as most suitable C. elegans strain amenable to high throughput screening (HTS). This stable strain has expressed human Kv4.3 as confirmed by electropharyngeograms (EPG) analysis. The method has been described in WO 03/097682. Briefly, dissected pharynxes of UG1755 C. elegans animals have been prepared and Electropharyngeograms (EPGs) have been recorded using an Axopatch-1D amplifier (Axon instruments). Pharynxes have been equilibrated for about 2 minutes in the bath solution (Dent's saline with 0.5% DMSO) until stable EPG recordings have been seen. Compound solution (DMSO or 100 μM Flecamide) has been added to the bath solution. The number of ultra short EPGs (10-20 ms) and normal EPGs (100-200 ms) has been analyzed and given as ratio in percentage. […] In addition standard qRT-PCR confirmed the presence of the human Kv4.3 transgene in UG1755 as well as human Kv4.3 protein has been detected with the human Kv4.3 antibody P 0358 in the pharynx of UG1755 animals. […]
Introducing the human Kv4.3 channel into the C. elegans pharynx influences the C. elegans action potential in a characteristic fashion. […] The pumping end-point can be technically translated into a high-throughput read-out by the use of a pro-fluorescent dye. […]

[1] = tested on: C. elegans wild-type strain N2; test: Same pumping assay format using C. elegans wild-type strain N2; assay type: in vivo; conditions: read-out: EC50 (μM) N2 worm
From the text: The screening of the compounds according to the present invention has been performed in the C. elegans based high-throughput screen for Kv4.3 modulators described above. The method for testing the activity on human Kv4.3 of the compounds according to the invention with C. elegans strains expressing human Kv4.3 for their activity is the same as the method described in WO 03/097682. The method for testing the compounds on wild-type C. elegans strains not expressing human Kv4.3 is the same as the method described in WO 00/63427. Briefly, UG1755 animals have been grown in large numbers and staged young adults (no or only few eggs inside the uterus) have been harvested on the day of screening. Approximately 125 animals in 80 μl buffer have been dispensed per well of a “U” shaped 96-well compound plate. The compound plate contained already compound material at a final concentration of 30 μM in 0.3% DMSO. […] After another four hours of incubation at 20° C., the drinking of C. elegans animals (or the “reaction” as measured by the uptake of CAM) has been stopped by adding 10 μl of a 60 μM ivermectin solution. The fluorescence intensity (counts per second) has been measured 40 minutes after adding ivermectin with the Wallac plate reader at a wavelength of 535 nm (after excitation at 485 nm). […]

EC50 ([1]; Caenorhabditis elegans) [µM] | Molecule | Ratio N2/Kv4.3 (human Kv4.3) | EC50 (human Kv4.3) [µM] | EC50 [1] [µM]
> 30 | C[C@@H](NC(=O)c1cc2cc(Cl)ccc2o1)c1ccc([N+](=O)[O-])cc1 [Compound 1, 5-chloro-benzofuran-2-carboxylic acid [(R)-1-(4-nitro-phenyl)-ethyl]-amide] | >4.9 | 6.1 | –
– | 5-chloro-benzofuran-2- carboxylic acid [3- (10,11-dihydro- dibenzo[a,d]cyclohepten- 5-ylidene)-propyl]- methyl-amide [Compound 5] | 5.7 | 4.2 | 24

Source: patent US20080039442A1, “Compounds With Kv4 Ion Channel Activity” (Devgen NV, priority 2004, published 2008)
